Test results published in US20140348819A1, “Methods of Treating Cancer” (Dana-Farber Cancer Institute, Inc., priority 2011, published 2014).

Tests used:
SK-MEL-28 = assay: Proliferation of SK-MEL-28 melanoma cells alone or co-cultured with stromal cell lines, PLX4720 with or without Crizotinib (Table 5); type: cell-based, human; conditions: DMSO (no Crizotinib)
Excerpt: (§1) The DLD-1 cells do harbor the BRAF activating mutation V600E but are not sensitive at all to BRAF inhibition. They actually grow faster under BRAFi.
(§2) Proliferation was quantified after 7 days and normalized to non-treated cells. Bars represent standard error between replicates (n=3).
(§3) The propensity of tumors to develop resistance to a wide range of chemotherapy drugs imposes a critical hurdle to the treatment of most types of cancers. […] An optimized high-throughput screening system was used to explore the prevalence and significance of stromal cell-mediated chemoresistance in solid tumors. Forty-six GFP-labeled human cancer cell lines (Table 1) were cultured on 384-well plates either alone or co-cultured with each one of 23 human stromal cell lines (Table 3). The effects of a diverse range of widely used chemotherapy drugs (Table 2) on the proliferation of the single- or co-cultured cancer cell lines were assessed through GFP readings and through fluorescence microscopy.

SK-MEL-5 = assay: Proliferation of SK-MEL-5 melanoma cells alone or co-cultured with stromal cell lines, PLX4720 with or without Crizotinib (Table 5); type: cell-based, human; conditions: DMSO (no Crizotinib)
Excerpt: as §1, §2, §3

WiDr = assay: Sensitivity of colorectal cancer cell line to PLX4720 with or without stromal cells (FIG. 2B); type: cell-based, human; conditions: colorectal cancer cell lines represented by WiDr
Excerpt: The propensity of tumors to develop resistance to a wide range of chemotherapy drugs imposes a critical hurdle to the treatment of most types of cancers. While the role of the cellular microenvironment in tumor progression and metastasis has been increasingly studied in recent years, its effects on drug resistance are still underappreciated and poorly understood. An optimized high-throughput screening system was used to explore the prevalence and significance of stromal cell-mediated chemoresistance in solid tumors. Forty-six GFP-labeled human cancer cell lines (Table 1) were cultured on 384-well plates either alone or co-cultured with each one of 23 human stromal cell lines (Table 3). The effects of a diverse range of widely used chemotherapy drugs (Table 2) on the proliferation of the single- or co-cultured cancer cell lines were assessed through GFP readings and through fluorescence microscopy. Stroma-mediated primary chemoresistance was clearly detected across most cancer cell lines and chemotherapy drugs (FIGS. 1A and 1B, Tables 3 and 4). In most cases, only a small subset of the stromal cells could render a specific cancer-cell line more resistant to a specific drug, and this subset was usually the same across cancer cell lines from the same origin (FIGS. 1-4). […]

G361 = assay: Proliferation of G361 melanoma cells alone or co-cultured with stromal cell lines, PLX4720 with or without Crizotinib (Table 5); type: cell-based, human; conditions: for normalized proliferation: G361, PLX4720 - 2 uM, DMSO (no Crizotinib)
Excerpt: as §1, §2, §3

[1] = system: V600E B-RAF melanoma cell lines; conditions: pre-clinical trials; cited from earlier work

With CCCS(=O)(=O)Nc1ccc(F)c(C(=O)c2c[nH]c3ncc(Cl)cc23)c1F [PLX4720] the normalized proliferation (SK-MEL-28; 1069sk, PLX4720 - 2 uM) was 0.1, the normalized proliferation (SK-MEL-28; HS-5, PLX4720 - 2 uM) was 0.1 and the normalized proliferation (SK-MEL-28; LL86, PLX4720 - 2 uM) was 0.3. For the same compound, the normalized proliferation (SK-MEL-28; No Fibro, PLX4720 - 2 uM) was 0.1, the normalized proliferation (SK-MEL-28; Wi-38, PLX4720 - 2 uM) was 0.4 and the normalized proliferation (SK-MEL-5; 1069sk, PLX4720 - 2 uM) was 0.4. For the same compound, the normalized proliferation (SK-MEL-5; HS-5, PLX4720 - 2 uM) was 0.5, the normalized proliferation (SK-MEL-5; LL86, PLX4720 - 2 uM) was 0.8 and the normalized proliferation (SK-MEL-5; No Fibro, PLX4720 - 2 uM) was 0.3. For the same compound, the normalized proliferation (SK-MEL-5; Wi-38, PLX4720 - 2 uM) was 0.6, the “sensitivity to BRAFi” value (WiDr) was “largely not sensitive” and the normalized proliferation (G361; 1069sk) was 0.1. For the same compound, the normalized proliferation (G361; HS-5) was 0.2, the normalized proliferation (G361; LL86) was 0.5 and the normalized proliferation (G361; No Fibro) was 0.1. The normalized proliferation (G361; Wi-38) was 0.4, the “sensitivity to the BRAF inhibitor PLX4720” value (G361; melanoma cell lines represented by G-361, FIG. 2B) was “sensitive” and the “sensitivity of V600E B-RAF melanoma cell lines” value [1] was “extremely sensitive”.
